Reference: ChEMBL document CHEMBL5584341, “Discovery of Potent, Specific, and Orally Available NLRP3 Inflammasome Inhibitors Based on Pyridazine Scaffolds for the Treatment of Septic Shock and Peritonitis” (J Med Chem, 2024)
Calls of active or inactive are those of the source. No cut-off for these calls is given here.

Tests used:
[1] = AUC(0 to t) in BALB/c mouse at 5 mg/kg, iv measured upto 24 hrs by LC-MS/MS analysis; format: ADME, organism-based; settings: in vivo
[2] = Inhibition of IL-1beta release in PMA-differentiated/ LPS and nigericin stimulated human THP-1 cells at 0.1 uM pretreated with LPS for 3 hrs followed by incubation with compound for 40 mins and later stimulated with nigericin for 40 mins by ELISA; format: functional; settings: THP-1, 1.333 h, time 80 min
[3] = tested on: Mus musculus; assay: Inhibition of MSU crystal induced peritonitis in BALB/c mouse assessed as reduction in IL-1beta level in peritoneal lavage fluids at 50 to 100 mg/kg, ip pretreated with LPS for 3 hrs followed by compound addition prior to MSU stimulation for 6 hrs by ELISA; format: functional, organism-based; settings: dose 50-100 mg/kg
[4] = molecular target: NACHT, LRR and PYD domains-containing protein 3 (Mus musculus) (UniProt Q8R4B8); assay: Inhibition of LPS/nigericin induced NLRP3 inflammasome activation in mouse BMDMs assessed as reduction in pyroptosis by measuring […] at 2 to 31.25 nM; format: cell-based; settings: BMDM, dose 2-31.25 nM
[5] = molecular target: NACHT, LRR and PYD domains-containing protein 3 (Mus musculus) (UniProt Q8R4B8); assay: Inhibition of NLRP3 inflammasome activation in LPS/nigericin stimulated mouse BMDMs assessed as effect on pro-IL-1beta expression pretreated with LPS for 3 hrs followed by compound addition for 40 mins prior to nigericin stimulation for 40 mins by Western blotting analysis; format: cell-based; settings: BMDM, time 80.0 min
[6] = tested on: BMDM; assay: Reduction in LDH release in LPS/nigericin stimulated mouse BMDMs at 5 to 80 nM; format: functional, cell-based; settings: dose 5-80 nM
[7] = tested on: THP-1; assay: Inhibition of nigericin induced ASC oligomerization in PMA differentiated human THP-1 cells at 5 to 80 nM pretreated compound for 40 mins followed by nigericin stimulation by immunofluorescence analysis; format: functional, cell-based; settings: dose 5-80 nM
[8] = Half-life in BALB/c mouse at 5 mg/kg, po measured upto 24 hrs by LC-MS/MS analysis; format: ADME, organism-based; settings: in vivo
[9] = molecular target: T1, Interferon-inducible protein AIM2 (Mus musculus) (UniProt Q91VJ1); assay: Inhibition of poly dA:dT stimulated AIM2 inflammasome activation in mouse BMDMs assessed as reduction in IL-1beta secretion pretreated with LPS for 3 hrs followed by compound addition for 40 mins prior to poly dA:dT stimulation for 6 hrs by Western blotting analysis; format: cell-based; settings: BMDM, time 400.0 min
T1 sequence (whole entry): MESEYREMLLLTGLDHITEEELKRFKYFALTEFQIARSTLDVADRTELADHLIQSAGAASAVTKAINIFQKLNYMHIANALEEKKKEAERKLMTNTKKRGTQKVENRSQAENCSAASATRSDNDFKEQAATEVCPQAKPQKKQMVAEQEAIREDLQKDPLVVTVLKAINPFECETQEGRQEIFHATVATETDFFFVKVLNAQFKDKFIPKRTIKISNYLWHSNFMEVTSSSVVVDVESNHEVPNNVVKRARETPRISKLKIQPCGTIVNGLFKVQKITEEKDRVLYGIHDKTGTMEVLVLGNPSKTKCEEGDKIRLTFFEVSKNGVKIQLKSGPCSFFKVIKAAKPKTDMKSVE

[10] = Inhibition of IL-1beta release in PMA-differentiated/ LPS and nigericin stimulated human THP-1 cells pretreated with LPS for 3 hrs followed by incubation with compound for 40 mins and later stimulated with nigericin for 40 mins by ELISA; format: functional, cell-based
[11] = tested on: Mus musculus; assay: Inhibition of MSU crystal induced peritonitis in BALB/c mouse assessed as reduction in serum IL-1beta level at 50 to 100 mg/kg, ip pretreated with LPS for 3 hrs followed by compound addition prior to MSU stimulation for 6 hrs by ELISA; format: functional, organism-based; settings: dose 50-100 mg/kg
[12] = Half-life in BALB/c mouse at 5 mg/kg, iv measured upto 24 hrs by LC-MS/MS analysis; format: ADME, organism-based; settings: in vivo
[13] = molecular target: NACHT, LRR and PYD domains-containing protein 3 (Mus musculus) (UniProt Q8R4B8); assay: Inhibition of NLRP3 inflammasome activation in mouse BMDMs assessed as effect on TNF-alpha production at 2 to 31.25 nM pretreated with compound for 40 mins followed by LPS/ATP stimulation; format: cell-based; settings: BMDM, dose 2-31.25 nM
[14] = Cmax in BALB/c mouse at 5 mg/kg, po measured upto 24 hrs by LC-MS/MS analysis; format: ADME, organism-based; settings: in vivo
[15] = molecular target: NACHT, LRR and PYD domains-containing protein 3 (Mus musculus) (UniProt Q8R4B8); assay: Inhibition of NLRP3 inflammasome activation in LPS stimulated mouse BMDMs assessed as reduction in IL-1beta release at 2 to 31.25 nM pretreated with LPS for 3 hrs followed by compound addition for 40 mins prior to alum stimulation for 6 hrs by ELISA; format: cell-based; settings: BMDM, dose 2-31.25 nM, time 400.0 min
[16] = tested on: Mus musculus; assay: Antiinflammatory activity against LPS induced septic shock in BALB/c mouse assessed as reduction in serum IL-1beta level at 25 mg/kg, ip pretreated for 1 hr followed by LPS stimulation and measured after 3 hrs by ELISA; format: functional, organism-based; settings: time 4.0 hrs
[17] = molecular target: NACHT, LRR and PYD domains-containing protein 3 (Mus musculus) (UniProt Q8R4B8); assay: Inhibition of NLRP3 inflammasome activation in LPS/nigericin stimulated mouse BMDMs assessed as effect on NLRP3 expression pretreated with LPS for 3 hrs followed by compound addition for 40 mins prior to nigericin stimulation for 40 mins by Western blotting analysis; format: cell-based; settings: BMDM, time 80.0 min
[18] = molecular target: NACHT, LRR and PYD domains-containing protein 3 (Mus musculus) (UniProt Q8R4B8); assay: Inhibition of NLRP3 inflammasome activation in LPS/nigericin stimulated mouse BMDMs assessed as effect on pro-caspase-1 expression pretreated with LPS for 3 hrs followed by compound addition for 40 mins prior to nigericin stimulation for 40 mins by Western blotting analysis; format: cell-based; settings: BMDM, time 80.0 min
[19] = Oral bioavailability in BALB/c mouse at 5 mg/kg measured upto 24 hrs by LC-MS/MS analysis; format: ADME, organism-based; settings: in vivo
[20] = Inhibition of IL-1beta release in PMA-differentiated/ LPS and nigericin stimulated human THP-1 cells at 0.5 uM pretreated with LPS for 3 hrs followed by incubation with compound for 40 mins and later stimulated with nigericin for 40 mins by ELISA; format: functional; settings: THP-1, 1.333 h, time 80 min
[21] = molecular target: NLR family CARD domain-containing protein 4 (Mus musculus) (UniProt Q3UP24); assay: Inhibition of flagellin stimulated NLRC4 inflammasome activation in mouse BMDMs assessed as reduction in IL-1beta secretion pretreated with LPS for 3 hrs followed by compound addition for 40 mins prior to flagellin stimulation for 6 hrs by Western blotting analysis; format: cell-based; settings: BMDM, time 400.0 min
[22] = Metabolic stability in human liver microsomes assessed as half life at 10 uM […] in presence of NADPH by LC-MS/MS analysis; format: ADME, Microsome
[23] = molecular target: NACHT, LRR and PYD domains-containing protein 3 (Mus musculus) (UniProt Q8R4B8); assay: Inhibition of NLRP3 inflammasome activation in mouse BMDMs assessed as effect on TNF-alpha production at 2 to 31.25 nM pretreated with compound for 40 mins followed by LPS/ nigericin stimulation; format: cell-based; settings: BMDM, dose 2-31.25 nM
[24] = molecular target: Cytochrome P450 3A4 (Homo sapiens, UniProt P08684); assay: Inhibition of human CYP3A4 upto 10 uM relative to control; format: ADME
[25] = molecular target: NACHT, LRR and PYD domains-containing protein 3 (Mus musculus) (UniProt Q8R4B8); assay: Inhibition of NLRP3 inflammasome activation in LPS stimulated mouse BMDMs assessed as reduction in IL-1beta release at 2 to 31.25 nM pretreated with LPS for 3 hrs followed by compound addition for 40 mins prior to ATP stimulation for 1 hr by ELISA; format: cell-based; settings: BMDM, dose 2-31.25 nM, time 100.0 min
[26] = MRT(0 to t) in BALB/c mouse at 5 mg/kg, po measured upto 24 hrs by LC-MS/MS analysis; format: ADME, organism-based; settings: in vivo

NACHT, LRR and PYD domains-containing protein 3 (Mus musculus), sequence (Q8R4B8 whole entry, the tested form may be a part): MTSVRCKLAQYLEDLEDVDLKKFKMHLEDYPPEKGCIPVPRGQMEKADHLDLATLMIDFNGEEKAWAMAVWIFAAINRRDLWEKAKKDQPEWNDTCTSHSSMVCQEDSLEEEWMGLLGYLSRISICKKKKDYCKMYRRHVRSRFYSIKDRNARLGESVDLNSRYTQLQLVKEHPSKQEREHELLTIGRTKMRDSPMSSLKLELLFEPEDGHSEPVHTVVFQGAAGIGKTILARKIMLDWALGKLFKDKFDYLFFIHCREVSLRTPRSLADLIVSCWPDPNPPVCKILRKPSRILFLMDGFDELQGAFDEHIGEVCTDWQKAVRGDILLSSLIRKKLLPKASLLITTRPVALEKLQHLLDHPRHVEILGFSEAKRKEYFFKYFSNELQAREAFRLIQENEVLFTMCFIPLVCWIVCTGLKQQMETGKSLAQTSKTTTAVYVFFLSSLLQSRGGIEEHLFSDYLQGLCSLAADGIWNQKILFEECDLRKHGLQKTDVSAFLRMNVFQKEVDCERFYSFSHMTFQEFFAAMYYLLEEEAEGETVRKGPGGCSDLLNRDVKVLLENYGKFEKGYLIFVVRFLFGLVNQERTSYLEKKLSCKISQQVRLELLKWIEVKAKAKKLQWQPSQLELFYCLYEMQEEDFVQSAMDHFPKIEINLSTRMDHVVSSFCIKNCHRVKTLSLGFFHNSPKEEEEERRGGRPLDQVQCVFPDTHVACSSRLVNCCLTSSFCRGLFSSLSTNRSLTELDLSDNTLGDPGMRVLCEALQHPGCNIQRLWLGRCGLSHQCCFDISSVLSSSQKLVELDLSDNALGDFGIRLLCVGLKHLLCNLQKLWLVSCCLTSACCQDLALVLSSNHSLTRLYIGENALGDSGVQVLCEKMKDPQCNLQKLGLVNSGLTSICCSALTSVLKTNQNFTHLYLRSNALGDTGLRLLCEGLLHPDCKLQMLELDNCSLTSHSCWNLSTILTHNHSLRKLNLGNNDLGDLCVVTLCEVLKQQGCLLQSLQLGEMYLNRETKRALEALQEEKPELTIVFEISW
NLR family CARD domain-containing protein 4 (Mus musculus), sequence (Q3UP24 whole entry, the tested form may be a part): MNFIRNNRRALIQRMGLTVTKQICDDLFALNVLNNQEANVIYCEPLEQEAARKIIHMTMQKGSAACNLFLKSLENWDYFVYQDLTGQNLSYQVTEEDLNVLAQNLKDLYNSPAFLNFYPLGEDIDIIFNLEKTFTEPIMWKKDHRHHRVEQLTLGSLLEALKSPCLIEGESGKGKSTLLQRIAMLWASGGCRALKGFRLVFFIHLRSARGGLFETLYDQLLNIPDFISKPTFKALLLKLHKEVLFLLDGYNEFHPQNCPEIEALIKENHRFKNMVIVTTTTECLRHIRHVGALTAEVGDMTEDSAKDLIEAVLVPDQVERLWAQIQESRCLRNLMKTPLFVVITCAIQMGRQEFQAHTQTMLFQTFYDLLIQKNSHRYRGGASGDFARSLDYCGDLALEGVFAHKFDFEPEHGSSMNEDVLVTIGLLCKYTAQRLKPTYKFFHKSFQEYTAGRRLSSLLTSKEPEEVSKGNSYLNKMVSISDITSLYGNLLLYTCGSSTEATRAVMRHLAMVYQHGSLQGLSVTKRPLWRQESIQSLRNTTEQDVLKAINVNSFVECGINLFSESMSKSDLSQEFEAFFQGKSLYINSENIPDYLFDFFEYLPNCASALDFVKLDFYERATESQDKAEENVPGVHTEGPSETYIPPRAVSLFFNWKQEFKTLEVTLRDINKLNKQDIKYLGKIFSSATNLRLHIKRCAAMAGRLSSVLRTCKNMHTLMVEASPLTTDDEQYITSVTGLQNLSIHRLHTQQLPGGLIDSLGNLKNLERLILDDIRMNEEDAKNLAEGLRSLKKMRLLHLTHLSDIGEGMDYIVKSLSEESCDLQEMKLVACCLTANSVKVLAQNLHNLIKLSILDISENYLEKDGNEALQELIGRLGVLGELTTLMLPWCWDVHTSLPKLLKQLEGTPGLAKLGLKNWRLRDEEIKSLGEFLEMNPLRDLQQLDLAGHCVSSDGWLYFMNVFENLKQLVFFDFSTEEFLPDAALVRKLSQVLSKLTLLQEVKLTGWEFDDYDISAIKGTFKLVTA
Cytochrome P450 3A4, sequence (P08684 whole entry, the tested form may be a part): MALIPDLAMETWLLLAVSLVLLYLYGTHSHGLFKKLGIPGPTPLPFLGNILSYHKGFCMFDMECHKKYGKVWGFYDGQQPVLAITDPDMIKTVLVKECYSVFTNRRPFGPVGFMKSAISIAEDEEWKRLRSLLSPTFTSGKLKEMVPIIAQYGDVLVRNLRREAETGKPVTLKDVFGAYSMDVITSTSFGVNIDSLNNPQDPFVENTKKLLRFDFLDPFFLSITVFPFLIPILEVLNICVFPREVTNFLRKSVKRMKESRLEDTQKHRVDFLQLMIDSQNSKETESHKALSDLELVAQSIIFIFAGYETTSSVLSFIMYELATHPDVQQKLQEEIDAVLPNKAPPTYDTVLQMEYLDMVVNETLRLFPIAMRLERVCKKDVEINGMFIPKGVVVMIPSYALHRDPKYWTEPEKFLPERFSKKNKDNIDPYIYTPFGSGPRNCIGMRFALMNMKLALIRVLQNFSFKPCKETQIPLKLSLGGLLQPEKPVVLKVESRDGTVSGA

OCCN1CCC[C@@H](Nc2nnc(-c3ccc4occc4c3O)c3c2C2CCC3CC2)C1
AUC(0-t) at 24 h [1]: 9520 ng·h/mL
inhibition at 0.1 µM [2]: 98.9%
inhibition [3]: Active
inhibition [4]: Active
inhibition [5]: inactive
Activity [6]: Dose-Dependent Effect
inhibition [7]: Active
half-life [8]: 4.74 h
inhibition [9]: inactive
IC50 [10]: 3 nM
inhibition [11]: Active
half-life [12]: 3.51 h
inhibition [13]: inactive
Cmax [14]: 746 ng/mL
inhibition [15]: Active
Activity [16]: Active
inhibition [17]: inactive
inhibition [18]: inactive
bioavailability [19]: 62%
inhibition at 0.5 µM [20]: 98.9%
inhibition [21]: inactive
half-life at 10 µM [22]: > 2 h
inhibition [23]: inactive
inhibition (INH) [24]: Not Active
inhibition [25]: Active
MRT last at 24 h [26]: 6.07 h
